Assay results as given in US7875745B2, “Compounds having lysophosphatidic acid receptor antagonism and uses thereof” (Ono Pharmaceutical Co., Ltd., priority 2003, dated 2011).
pIC50: −log10 of the molar value.

Legend:
human EDG-2 = biological target: T1, human EDG-2 (Homo sapiens, UniProt Q92633); assay: Evaluation of EDG-2 antagonistic activity by monitoring the change of intracellular calcium ion concentration; type: cell-based; settings: CHO cells overexpressing human EDG-2 gene; LPA 100 nM; intracellular calcium (Fura2-AM)
T1 construct: expressed in transfected cells; host or cells: Chinese hamster ovary (CHO) cells
Experimental: Evaluation of EDG-2 Antagonistic Activity by Monitoring the Change of Intracellular Calcium Ion Concentration:
The EDG-2 antagonistic activity was evaluated by using Chinese hamster ovary (CHO) cells which overexpressed human EDG-2 gene. The EDG-2-expressing cells were cultured with Ham's F12 medium (manufactured by GIBCO BRL, No. 11765-047) containing 10% FBS (fetal bovine serum), penicillin/streptomycin and blasticidin (5 μg/ml). Firstly, in order to incorporate Fura2-AM (manufactured by Dojindo, No. 348-05831) into the cells, the cells were incubated in 5 μM Fura2-AM solution (10% FBS, 20 mM HEPES buffer (pH 7.4), 2.5 mM probenecid (manufactured by Sigma, No. P-8761)-containing Ham's F12 medium) at 37° C. for 60 minutes. […] A plate was set in a fluorescence drug screening system (manufactured by Hamamatsu Photonics K.K., FDSS-2000, FDSS-6000) and intracellular calcium ion concentration was measured for 30 seconds without stimulation, and a solution of the compound of present invention was added. Five minutes thereafter, LPA (final concentration: 100 nM) was added, and the intracellular calcium ion concentration before and after the addition at the interval of 3 seconds (excitation wavelength: 340 nm and 380 nm, fluorescence wavelength: 500 nm). […]

[1] = system: urethral pressure of rats; assay: Effect on urethral pressure of rats (in vivo); design: species or system rat; settings: anesthetized male CD(SD)IGS rats, intravenous, dose of 0.1 mg/kg to 1 mg/kg
From the text: Effect on Urethral Pressure of Rats (in vivo):
Male CD(SD)IGS rats (Japan Charles River, 8 to 9-week-old at the use) were anesthetized by subcutaneous administration of urethane (1.2 g/kg). After dissection at the cervical midline, a jugular vein catheter for compound administration and an artery catheter for blood pressure measurement were inserted. Next, after dissection at the hypogastric midline, the urethra was ligated under the pubic bone. An urethra catheter for urethral pressure measurement was inserted into the urethra from the dissected the top of the bladder, and ligated and fixed at the bladder neck. Each of the urethra catheter and the artery catheter was connected with a pressure-transducer, and the urethral pressure and blood pressure were measured. […] Then, the test compound was intravenously administered, and the urethral pressure and blood pressure were measured for 20 minutes. […]
The test compound was administered at respective doses. […] For the evaluation of the effect of the test compound on the urethral pressure, the values subtracting the urethral pressure before the administration from the measured urethral pressures every 2 minutes after the administration were obtained and a graph of the change with time (decreased amount of the urethral pressure from the base line) was prepared.

T1 sequence (Q92633 whole entry): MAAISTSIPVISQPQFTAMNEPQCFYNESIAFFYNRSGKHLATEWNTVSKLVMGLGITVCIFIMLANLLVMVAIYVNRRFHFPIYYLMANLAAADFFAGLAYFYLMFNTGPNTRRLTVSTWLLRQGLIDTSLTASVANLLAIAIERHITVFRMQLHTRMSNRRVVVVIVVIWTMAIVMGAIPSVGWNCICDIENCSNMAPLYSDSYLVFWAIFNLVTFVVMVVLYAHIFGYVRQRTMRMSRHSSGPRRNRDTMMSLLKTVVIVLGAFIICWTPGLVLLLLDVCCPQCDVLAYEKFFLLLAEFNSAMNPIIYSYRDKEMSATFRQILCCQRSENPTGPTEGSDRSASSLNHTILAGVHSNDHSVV

## COc1cc([C@@H](O)[C@@H](CCCc2ccccc2)Cc2ccc(CC(=O)O)cc2)cc(OC)c1OC [Example 20(2), (4-{(2S)-2-[(S)-hydroxy(3,4,5-trimethoxyphenyl)methyl]-5-phenylpentyl}phenyl)acetic acid]
Human EDG-2
  pIC50: 7.40
[1]
  change of the urethral pressure after administration: significantly remarkable decrease of the urethral pressure
  maximum decreased amount of the urethral pressure, of the absolute value of the urethral pressure (pressure before administration - base line value after death): 30 to 40%
